From US20240001155A1, “REVERSAL OF CELLULAR SENESCENCE BY TREATMENT WITH LOW FREQUENCY ULTRASOUND” (Mechanobiologics, Inc., priority 2022, published 2024)

Experiments:
platelet = details: risk of causing thrombocytopenia; cited from earlier work
Vero cells [1] = assay: Proliferation (growth rate, fold change in cell number) of cells after senescence induction; format: cell-based, African monkey; details: senescence induced by the agent; 48 hours of incubation; control cells approximately eight-fold change; FIG. 1B
Description: (§1) Vero cells were treated with the stressors including 200 μM H2O2, 4 mM of sodium butyrate (SB) or 25 μM of bleomycin sulphate (BS) and incubated for 36-48 hours. After washing with PBS and then replacing growth medium with fresh medium, cells were incubated for four days to confirm the growth arrest of senescent cells. […] Four criteria were used to determine if cells were senescent; (1) cell cycle arrest by determining the growth rate, (2) Increase in cell spread area, (3) development of senescence associated secretory phonotype (SASP) in culture medium, and (4) beta-gal staining. Images of cells were captured with an Evos microscope at 10× magnification after treatment and 48 hours post treatment.
To measure growth by the increase in cell number, 15 random images were captured, then the average number of cells were determined, which was divided by the area of one frame to get the cell density (cells/cm^2). Then this seeding density was multiplied by the total area of the dish or well to obtain the total number of cells after ultrasound (US) treatment and after 48 hours of incubation. The total number of cells at 48 hours was divided by the total number of cells just after the treatment to determine the growth rate. A ratio was one would be an indication of no growth.

Vero cells [2] = assay: Cell spread area after senescence induction; format: cell-based, African monkey; details: senescence induced by the agent, compared to normal control cells; FIG. 1C
Description: as §1
Senescence was detected by the beta-galactosidase senescence staining kit as per manufacturer's protocol. Briefly, sub confluent senescent cells were stained by the SA-beta galactosidase (β-gal) staining solution and incubated overnight at 37° C. The β-gal-stained cells appeared blue and were senescent cells. The percentages of β-gal positive cells were determined by counting the number of blue cells and dividing by the total number of cells. Cell spread area was determined by capturing the mages of cells with a 10× objective using an Evos microscope. Then, ImageJ software was used to calculate spread area by manually encircling the cell periphery of each cell. A minimum of 150 cells was used for the analysis. To determine the SASP activity, the senescent cells were cultured for one to three days and then supernatant was collected from each dish. This supernatant was used to culture normal cells. Development of a senescence phenotype by the normal cells in supernatant medium confirmed that senescent cells were secreting SASP.

Sirtuin1 = assay: LFU rejuvenation of senescent cells in presence of Sirtuin1 inhibitor; format: cell-based, Human; details: HFF cells with ultrasound treatment in presence of drug; FIG. 7
Description: Passage 15-24 HFF cells were treated with ultrasound at the optimized frequency, power and duty cycle. Cell proliferation was determined by counting the number of cells at the time of seeding and 48 hours after ultrasound (US) treatment. […] In the case of P24 HFF cells, they were treated with ultrasound and incubated for 96 hours prior to trypsinization, reseeding and incubation for 48 hours. Proliferation and morphology were measured after 48 hours of incubation.
FIG. 7A is a schematic of resveratrol and EX-527 treatment, followed by ultrasound treatment and medium change. FIG. 7B is a bar graph comparing the fold change in cell number of untreated control HFF cells in presence of EX-527.
FIG. 7C is a bar graph comparing the fold change in cell number of treated P19 cells in the presence of drug. FIG. 7D is a set of images comparing the immunofluorescence staining of Sirt1 in untreated and US treated HFF cells. FIG. 7E is bar graph comparing the sirt1 expression by intensity ratio of sirt1 and DAPI. Results are shown as mean±S.D. **p value <0.02 and ‘non-significant’ p value >0.05.

Row | Compound | toxicity (platelet) | proliferation (fold change) (Vero cells [1]) | spread area (Vero cells [2]) | LFU rejuvenation of senescent cells (Sirtuin1)
1 | CC1(C)CCC(c2ccc(Cl)cc2)=C(CN2CCN(c3ccc(C(=O)NS(=O)(=O)c4ccc(N[C@H](CCN5CCOCC5)CSc5ccccc5)c(S(=O)(=O)C(F)(F)F)c4)cc3)CC2)C1 [ABT263] | dose-limiting platelet toxicity |  |  | 
2 | COc1cccc2c1C(=O)c1c(O)c3c(c(O)c1C2=O)C[C@@](O)(C(=O)CO)C[C@@H]3O[C@H]1C[C@H](N)[C@H](O)[C@H](C)O1 [Doxorubicin] |  | non proliferative | enlarged | 
3 | NC(=O)C1CCCc2c1[nH]c1ccc(Cl)cc21 (stereo not shown) [EX-527] |  |  |  | blocked
4 | OO [H2O2, hydrogen peroxide] |  | non proliferative | enlarged | 
5 | CCCC(=O)[O-].[Na+] [sodium butyrate] |  | non proliferative | enlarged | 
6 | Bleomycin Sulphate |  | non proliferative | enlarged | 
